Experimental data taken from US7273713B2, “Methods of modulating mitochondrial NAD-dependent deacetylase” (The Regents of the University of California, priority 2002, dated 2007).

Legend:
[1] = molecular target: T1, hSIRT3 (Homo sapiens, UniProt Q9NTG7); assay: In vitro deacetylase assay on mitochondrial lysates of hSIRT3-transfected cells; assay type: biochemical; details: lysates of hSIRT3-transfected HEK293T cells, compared with untransfected lysates
T1 construct: proteolytically cleaved by mitochondrial matrix processing peptidase (MPP) between residues Ser101 and Ilel02; expressed in transfected cells; host or cells: HEK293T cells, mitochondrial lysate in TXIP-1 buffer
T1 sequence (Q9NTG7 102-399 limits assumed): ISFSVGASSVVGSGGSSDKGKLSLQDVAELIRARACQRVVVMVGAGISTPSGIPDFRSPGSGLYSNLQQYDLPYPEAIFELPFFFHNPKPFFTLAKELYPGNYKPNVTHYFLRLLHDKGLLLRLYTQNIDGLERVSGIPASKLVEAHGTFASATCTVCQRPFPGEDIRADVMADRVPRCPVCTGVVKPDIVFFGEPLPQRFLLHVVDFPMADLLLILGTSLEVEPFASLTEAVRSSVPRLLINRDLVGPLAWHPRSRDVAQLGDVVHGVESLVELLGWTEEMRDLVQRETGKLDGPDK
Description: Deacetylase assays were performed in a total volume of 100 μl SIRT deacetylase buffer (4 mM MgCl2, 0.2 mM dithiothreitol, 50 mM Tris-HCl, pH 9.0) containing immunoprecipitated proteins or mitochondrial lysates and a peptide corresponding to the first the first 22 amino acids of histone 4 chemically acetylated in vitro (27). Where indicated, 1 mM NAD, 5 mM nicotinamide (both from Sigma, St. Louis, Mo.) or 400 nM TSA (WAKO, Richmond, Va.) were added. Deacetylation reactions were stopped after 2 hours of incubation at room temperature by adding 25 μl stop solution (0.1 M HCl, 0.16 M acetic acid). Released acetate was extracted into 500 μl ethyl acetate and samples were vigorously shaken for 15 minutes. After centrifugation for 5 minutes, 400 μl of the ethyl acetate fraction was mixed with 5 ml scintillation fluid (Packard, Meriden, Conn.) and the released radioactivity was measured using a liquid scintillation counter.
In vitro deacetylase activities of equal amounts of mitochondrial lysate are shown.

[2] = tested on: NAD-dependent deacetylase activity in human mitochondrial fractions prepared from HEK293T cells; assay: In vitro deacetylase assay on mitochondrial lysates, acetylated histone H4 peptide; details: NAD 1 mM, 2 hrs
[3] = tested on: import of hSIRT3 into isolated mammalian mitochondria; assay: Import of radiolabeled hSIRT3 into isolated mitochondria; details: antimycin 8 μM, oligomycin 20 μM and valinomycin 1 μM added together to dissipate the transmembrane potential
Description: Import into isolated mitochondria was carried out as previously reported (22). Proteins were synthesized in the presence of [^35S]-methionine by coupled transcription-translation in reticulocyte lysate (Promega, Madison, Wis.) (23). In vitro translation reactions were centrifuged at 108,000×g, 2° C. for 15 min and adjusted to 250 mM sucrose. Import reactions contained 5% (v/v) reticulocyte lysate in import buffer (3% (w/v) fatty-acid free bovine serum albumin (BSA), 250 mM sucrose, 80 mM KCl, 5 mM MgCl2, 2 mM KH2PO4, 5 mM L-methionine, 10 mM 3-[N-morpholino]propanesulfonic acid-KOH, pH 7.2). In each import reaction, 50 μg of freshly isolated mammalian mitochondria were mixed with radiolabeled proteins and incubated at 30° C. ATP (2 mM) and sodium succinate (10 mM) were added to maintain coupling of isolated mitochondria. Import was stopped by addition of valinomycin (1 μM) and transfer to 0°C.
Where indicated, samples were treated with proteinase K (50 μg/ml) for 10 min on ice. Protease treatment was stopped by addition of 2 mM phenylmethylsulfonyl fluoride (PMSF). Mitochondria were reisolated by centrifugation at 10,000×g for 5 min at 4° C., washed in SEM buffer and recentrifuged as above. Mitochondrial pellets were resuspended in SDS sample buffer containing dithiothreitol (DTT) and heated to 95° C. for 5 min. Samples were subjected to SDS-PAGE. Dried gels were exposed to Biomax MR film (Kodak, Rochester, N.Y.) at −70° C. and analyzed on a Fuji FUJIX BAS 1000 phosphorimager. […]
FIG. 4. […] After reisolation of mitochondria and SDS-PAGE, the amounts of imported proteins were quantified by phosphorimaging. FIG. 4B, Quantitation of imported protein by phosphorimaging. […] Reisolated and washed mitochondria were lysed in SDS sample buffer and analyzed by SDS-PAGE. […] FIG. 4E, Import efficiency of individual hSIRT3 mutants was quantitated in relation to their standards by phosphorimaging. […]

Molecule | effect on import of hSIRT3 across the mitochondrial membrane [3] | further results
CC(/C=C/C(=O)NO)=C\[C@@H](C)C(=O)c1ccc(N(C)C)cc1 [TSA, trichostatin A] | – | sensitivity of deacetylase activity of mitochondrial lysates overexpressing hSIRT3 [1]: same properties as untransfected mitochondrial lysates; effect on NAD-dependent deacetylase activity of mitochondrial lysate ([2]; TSA 400 nM): no effect
NC(=O)c1cccnc1 [nicotinamide] | – | effect on NAD-dependent deacetylase activity of mitochondrial lysate ([2]; nicotinamide 5 mM): suppressed
CC[C@H]1/C=C/C=C/C[C@@H](C)[C@H](O)[C@@](C)(O)C(=O)[C@@H](C)[C@H](O)[C@@H](C)C(=O)[C@@H](C)[C@H](O)[C@@H](C)/C=C/C(=O)O[C@@H]2[C@H](C)[C@H](CC1)O[C@]1(CC[C@H](C)[C@H](C[C@@H](C)O)O1)[C@H]2C [oligomycin] | inhibited | –
CC(C)[C@@H]1NC(=O)[C@H](C)OC(=O)[C@@H](C(C)C)NC(=O)[C@@H](C(C)C)OC(=O)[C@H](C(C)C)NC(=O)[C@H](C)OC(=O)[C@@H](C(C)C)NC(=O)[C@@H](C(C)C)OC(=O)[C@H](C(C)C)NC(=O)[C@H](C)OC(=O)[C@@H](C(C)C)NC(=O)[C@@H](C(C)C)OC1=O [valinomycin] | inhibited | –
antimycin | inhibited | –
